This is an account of results in ChEMBL document CHEMBL1201862, “PubChem BioAssay data set” (2004).

Activity calls are given as the source filed them.

One assay deals with H4. The assay is described as follows: Luminescence Cell-Based Dose Response HTS to Identify Activators of 5'UTR Stem-Loop Driven Prion Protein mRNA Translation in H4 Neuroglioblastoma Cells. [Related pubchem assays: 1829 (Project Summary), 1814 (Primary HTS)]. The format is functional. The conditions noted are these: Homo sapiens.
A short description of assay [1]: Luminescence Cell-Based Dose Confirmation HTS to Identify Activators of 5'UTR Stem-Loop Driven Alpha-Synuclein mRNA Translation in H4 Neuroglioblastoma Cells. [Related pubchem assays: 1829 (Project Summary), 1814 (Primary HTS)]. The format is functional.
The nature of assay [2]: Luminescence Cell-Based Dose Response HTS to Identify Activators of Luciferase Translation or Activity in H4 […] Cells. [Related pubchem assays: 1829 (Project Summary), 1814 (Primary HTS)]. The format is functional.
The target of assay [3] is FAD-linked sulfhydryl oxidase ALR (Homo sapiens, UniProt P55789). The assay is described as follows: inhibitors of human ALR sulfhydryl oxidase, dose response, biochemical, H2O2 detection, luminescence, cherry-pick (AID 493248).
A further assay deals with Genome polyprotein (dengue virus type 2, UniProt P29990). The assay is described as follows: Dengue-2 NS5 methyltransferase inhibitors, primary screen, biochemical, confirmation dose response (AID 588689). The format is functional.
Assay [4] concerns the target T1, Fatty acid synthase (Homo sapiens, UniProt P49327). The assay is described as follows: FAS thioesterase domain inhibitors, dose response, biochemical, kinetic fluorescence intensity (AID 624326).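 Also: rate of fluorescence rise from hydrolysis of a fluorogenic O-methyl fluorescein ester substrate.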 The format is functional.
The target of assay [5] is T1, Fatty acid synthase. The assay is described as follows: FAS thioesterase domain inhibitors, dose response, biochemical, endpoint fluorescence intensity, uHTS hits (AID 624327).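 Also: fluorescence from hydrolysis of an O-methyl fluorescein acyl ester substrate by the enzyme.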 Type of assay: functional.
A further assay deals with T2, Leucine aminopeptidase (Plasmodium falciparum 3D7, UniProt Q8IL11).
T2 sequence (Q8IL11 whole entry): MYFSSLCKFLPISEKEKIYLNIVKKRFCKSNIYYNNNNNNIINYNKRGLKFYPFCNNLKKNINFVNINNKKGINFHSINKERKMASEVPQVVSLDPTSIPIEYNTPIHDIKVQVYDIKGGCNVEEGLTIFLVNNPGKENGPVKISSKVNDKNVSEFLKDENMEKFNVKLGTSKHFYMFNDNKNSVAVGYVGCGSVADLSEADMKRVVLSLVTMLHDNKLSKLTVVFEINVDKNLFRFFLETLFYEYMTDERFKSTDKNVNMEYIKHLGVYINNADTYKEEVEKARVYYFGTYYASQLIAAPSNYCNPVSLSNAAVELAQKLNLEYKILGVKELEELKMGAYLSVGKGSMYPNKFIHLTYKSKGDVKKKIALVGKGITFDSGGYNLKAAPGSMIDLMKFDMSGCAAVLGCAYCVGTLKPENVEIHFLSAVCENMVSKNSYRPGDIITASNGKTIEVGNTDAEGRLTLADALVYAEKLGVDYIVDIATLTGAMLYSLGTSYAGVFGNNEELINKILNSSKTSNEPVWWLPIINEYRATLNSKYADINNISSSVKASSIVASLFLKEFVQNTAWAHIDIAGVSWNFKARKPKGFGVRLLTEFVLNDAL
The assay is described as follows: P. falciparum M17LAP inhibitors, primary screen, biochemical, fluorogenic H-Leu-NHMec substrate, 1536-well (AID 1619). Type of assay: functional.

In assay [6] the target is T3, RNA-binding protein pos-1 (Caenorhabditis elegans, UniProt G5EF15).
T3 sequence (G5EF15 whole entry): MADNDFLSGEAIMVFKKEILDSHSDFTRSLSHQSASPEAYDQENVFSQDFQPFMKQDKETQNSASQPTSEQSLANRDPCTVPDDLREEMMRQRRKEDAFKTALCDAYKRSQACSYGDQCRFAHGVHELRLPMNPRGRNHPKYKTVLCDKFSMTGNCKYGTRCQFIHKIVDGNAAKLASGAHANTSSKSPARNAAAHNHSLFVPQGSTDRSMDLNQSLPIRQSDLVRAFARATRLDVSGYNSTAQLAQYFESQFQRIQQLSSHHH
The assay is described as follows: inhibitors of POS-1/mex-3 RNA binding, dose response, biochemical, fluorescence polarization (AID 1964).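 Also: purified POS-1 fused to maltose binding protein made in E. coli; potency of compounds blocking POS-1 binding to fluorescent RNA.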

Assay [7] has as its target T4, Zinc finger protein mex-5 (Caenorhabditis elegans, UniProt Q9XUB2).
T4 sequence (Q9XUB2 whole entry): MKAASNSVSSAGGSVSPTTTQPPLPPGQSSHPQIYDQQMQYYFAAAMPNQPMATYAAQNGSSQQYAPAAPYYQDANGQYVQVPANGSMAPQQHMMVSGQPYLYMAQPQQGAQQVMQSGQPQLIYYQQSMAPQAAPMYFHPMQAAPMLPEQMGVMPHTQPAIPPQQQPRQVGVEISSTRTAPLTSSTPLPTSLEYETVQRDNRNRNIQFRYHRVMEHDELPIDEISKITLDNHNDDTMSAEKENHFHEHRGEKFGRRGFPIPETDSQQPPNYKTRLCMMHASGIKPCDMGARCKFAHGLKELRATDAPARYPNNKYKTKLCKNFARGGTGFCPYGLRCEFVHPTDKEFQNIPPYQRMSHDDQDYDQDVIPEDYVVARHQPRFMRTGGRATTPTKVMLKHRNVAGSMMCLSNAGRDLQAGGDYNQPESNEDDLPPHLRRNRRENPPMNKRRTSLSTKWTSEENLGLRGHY
The assay is described as follows: MEX-5/TCR-2 RNA interaction inhibitors, dose response, biochemical, C. elegans, fluorescence polarization (AID 1960). For orientation: Fluorescence polarisation rises when a labelled molecule tumbles more slowly, as on binding a larger partner.

A short description of assay [8]: P. falciparum Dd2 growth inhibitors, dose response, SYBR Green, cherry-picked samples (AID 1159567). Type of assay: functional, cell-based.

Chain of Genome polyprotein (P29990 2492-3391 limits assumed): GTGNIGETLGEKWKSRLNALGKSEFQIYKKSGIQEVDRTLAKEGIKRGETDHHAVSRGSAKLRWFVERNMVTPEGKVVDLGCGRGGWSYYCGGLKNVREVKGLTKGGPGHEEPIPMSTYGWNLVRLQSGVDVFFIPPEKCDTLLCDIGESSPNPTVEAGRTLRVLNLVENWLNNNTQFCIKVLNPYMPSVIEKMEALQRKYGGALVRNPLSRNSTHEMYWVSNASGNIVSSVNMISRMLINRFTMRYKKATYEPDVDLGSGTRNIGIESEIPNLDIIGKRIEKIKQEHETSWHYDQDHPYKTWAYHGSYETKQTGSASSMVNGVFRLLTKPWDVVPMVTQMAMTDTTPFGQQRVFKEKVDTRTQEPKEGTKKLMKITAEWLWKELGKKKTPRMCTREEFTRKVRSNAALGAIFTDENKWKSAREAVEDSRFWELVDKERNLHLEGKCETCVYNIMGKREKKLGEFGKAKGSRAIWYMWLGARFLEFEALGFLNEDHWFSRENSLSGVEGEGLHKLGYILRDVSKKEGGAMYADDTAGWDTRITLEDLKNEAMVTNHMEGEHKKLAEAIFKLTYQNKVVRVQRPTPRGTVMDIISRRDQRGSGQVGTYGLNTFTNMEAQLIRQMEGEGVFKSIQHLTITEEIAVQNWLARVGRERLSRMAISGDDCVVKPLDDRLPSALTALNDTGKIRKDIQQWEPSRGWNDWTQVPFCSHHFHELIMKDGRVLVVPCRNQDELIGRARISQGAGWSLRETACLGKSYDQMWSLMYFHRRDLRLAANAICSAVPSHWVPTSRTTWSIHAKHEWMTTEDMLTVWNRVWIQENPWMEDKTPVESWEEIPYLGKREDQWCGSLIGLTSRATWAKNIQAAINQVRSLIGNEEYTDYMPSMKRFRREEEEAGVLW
T1 sequence (P49327 whole entry, the tested form may be a part): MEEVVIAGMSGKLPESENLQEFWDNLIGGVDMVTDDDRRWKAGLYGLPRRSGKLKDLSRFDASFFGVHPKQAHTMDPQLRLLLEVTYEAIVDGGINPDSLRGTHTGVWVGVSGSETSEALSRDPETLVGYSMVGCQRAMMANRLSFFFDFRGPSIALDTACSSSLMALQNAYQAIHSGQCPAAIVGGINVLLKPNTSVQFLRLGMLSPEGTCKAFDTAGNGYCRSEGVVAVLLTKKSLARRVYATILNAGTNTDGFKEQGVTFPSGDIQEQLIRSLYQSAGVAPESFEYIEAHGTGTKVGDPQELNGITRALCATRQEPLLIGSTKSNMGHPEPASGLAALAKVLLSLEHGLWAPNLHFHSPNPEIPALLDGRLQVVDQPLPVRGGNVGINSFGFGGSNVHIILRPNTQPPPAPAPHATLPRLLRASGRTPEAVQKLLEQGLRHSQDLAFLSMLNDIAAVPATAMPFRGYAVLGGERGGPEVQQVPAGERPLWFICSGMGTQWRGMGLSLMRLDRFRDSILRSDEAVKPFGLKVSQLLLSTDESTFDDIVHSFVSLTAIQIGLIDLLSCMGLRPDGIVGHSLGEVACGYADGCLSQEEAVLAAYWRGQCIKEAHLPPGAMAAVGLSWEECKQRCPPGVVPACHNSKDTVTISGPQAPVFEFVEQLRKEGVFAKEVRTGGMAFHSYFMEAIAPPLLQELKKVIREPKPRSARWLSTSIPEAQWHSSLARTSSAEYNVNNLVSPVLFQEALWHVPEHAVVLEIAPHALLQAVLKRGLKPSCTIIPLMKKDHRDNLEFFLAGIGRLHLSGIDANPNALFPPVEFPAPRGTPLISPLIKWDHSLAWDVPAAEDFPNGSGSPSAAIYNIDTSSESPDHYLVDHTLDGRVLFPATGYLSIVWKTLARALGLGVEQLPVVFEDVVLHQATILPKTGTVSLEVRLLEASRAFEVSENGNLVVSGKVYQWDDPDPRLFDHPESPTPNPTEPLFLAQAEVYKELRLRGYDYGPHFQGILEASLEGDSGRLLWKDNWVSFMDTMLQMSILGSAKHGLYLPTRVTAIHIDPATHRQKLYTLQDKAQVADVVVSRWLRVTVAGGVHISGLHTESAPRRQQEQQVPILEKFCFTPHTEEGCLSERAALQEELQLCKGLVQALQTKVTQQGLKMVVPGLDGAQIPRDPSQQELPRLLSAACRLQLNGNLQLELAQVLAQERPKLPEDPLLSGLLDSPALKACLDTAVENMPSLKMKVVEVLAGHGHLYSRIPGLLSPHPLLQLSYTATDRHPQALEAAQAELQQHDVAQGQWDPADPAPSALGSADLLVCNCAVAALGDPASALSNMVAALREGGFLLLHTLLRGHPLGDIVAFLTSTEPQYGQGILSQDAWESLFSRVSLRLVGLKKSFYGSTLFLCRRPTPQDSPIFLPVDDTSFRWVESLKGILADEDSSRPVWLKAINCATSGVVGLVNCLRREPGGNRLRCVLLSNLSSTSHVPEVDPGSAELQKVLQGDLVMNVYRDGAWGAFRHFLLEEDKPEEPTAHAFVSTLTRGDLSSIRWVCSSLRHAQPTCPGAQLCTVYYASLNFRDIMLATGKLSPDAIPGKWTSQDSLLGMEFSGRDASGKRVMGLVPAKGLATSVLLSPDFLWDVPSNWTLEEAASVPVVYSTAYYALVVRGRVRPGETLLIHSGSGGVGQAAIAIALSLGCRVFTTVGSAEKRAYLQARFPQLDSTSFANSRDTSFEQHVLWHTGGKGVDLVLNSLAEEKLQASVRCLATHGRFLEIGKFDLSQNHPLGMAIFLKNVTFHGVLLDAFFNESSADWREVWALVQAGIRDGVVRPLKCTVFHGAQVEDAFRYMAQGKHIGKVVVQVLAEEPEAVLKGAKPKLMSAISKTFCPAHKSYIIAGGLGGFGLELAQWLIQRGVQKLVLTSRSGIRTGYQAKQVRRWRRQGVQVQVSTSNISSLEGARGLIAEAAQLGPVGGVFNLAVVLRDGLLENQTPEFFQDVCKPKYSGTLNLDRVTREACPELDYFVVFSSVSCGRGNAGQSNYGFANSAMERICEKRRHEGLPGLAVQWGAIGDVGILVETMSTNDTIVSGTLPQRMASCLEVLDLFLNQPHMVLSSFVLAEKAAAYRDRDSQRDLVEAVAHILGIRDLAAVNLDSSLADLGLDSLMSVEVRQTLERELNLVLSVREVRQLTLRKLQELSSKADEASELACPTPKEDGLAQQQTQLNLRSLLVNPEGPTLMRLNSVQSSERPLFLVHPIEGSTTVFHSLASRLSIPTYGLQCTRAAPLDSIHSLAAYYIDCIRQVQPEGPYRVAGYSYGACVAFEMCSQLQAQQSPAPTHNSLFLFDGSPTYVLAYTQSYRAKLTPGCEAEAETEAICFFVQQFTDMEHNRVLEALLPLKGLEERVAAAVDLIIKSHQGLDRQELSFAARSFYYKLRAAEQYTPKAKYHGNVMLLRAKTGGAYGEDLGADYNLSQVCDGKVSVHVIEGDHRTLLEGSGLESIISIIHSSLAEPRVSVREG
Chain of FAD-linked sulfhydryl oxidase ALR (P55789 whole entry): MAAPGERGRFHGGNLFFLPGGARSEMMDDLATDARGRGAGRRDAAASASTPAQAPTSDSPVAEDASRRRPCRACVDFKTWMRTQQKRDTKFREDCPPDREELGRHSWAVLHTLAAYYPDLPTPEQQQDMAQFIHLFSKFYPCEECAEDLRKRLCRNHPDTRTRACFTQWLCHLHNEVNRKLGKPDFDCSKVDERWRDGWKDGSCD

Regarding `CC(C)c1ccc(/C=C2\SC(=O)N(CC(=O)NCCCn3ccnc3)C2=O)cc1`, the results for the EC50 (in the assay on H4; in [1]; in assay [2]) were 18.7 µM (active), 29.8 µM (active) and 0.418 µM (active), respectively. For the same compound, in assay [3], the AC50 was 1.75 µM (active).
Consider `COc1cccc(/C=C/c2nc(O)nc(O)c2[N+](=O)[O-])c1O`, for which the IC50 on Genome polyprotein was 72.5 µM (active). Moreover, the AC50 in [3] is 39.1 µM (active).
As to `COCCCn1c(SCC(=O)Nc2ccc(C(C)=O)cc2)nc2ccccc2c1=O`, the EC50 with H4 is 68.6 µM (active); in [1], 13.9 µM (active); in assay [2] it was 22.8 µM (active).
In the case of `CCN(CCCNC(=O)CNC(=O)Cn1cnc2ccccc2c1=O)c1ccccc1`, in [3], the AC50 was 0.729 µM (active).
In the case of `COC(=O)CC(NC(=O)Nc1ccc(C)cc1)c1cccc([N+](=O)[O-])c1` (stereo not drawn), the IC50 at Fatty acid synthase [4] is 8.7 µM (active); on Fatty acid synthase [5] it was 11.5 µM (active).
Take `O=C1CS/C(=C\S(=O)(=O)c2ccc(Cl)cc2)N1`: the IC50 on Leucine aminopeptidase was 40 µM (active).
With `O=C(Nn1c(C2CCCCC2)nc2ccccc2c1=O)c1ccc([N+](=O)[O-])cc1Cl`, the figures for the IC50 on Fatty acid synthase [4] and at Fatty acid synthase [5] were 18.9 µM (active) and 19.3 µM (active), respectively.
With `O=C1CN(C(=O)c2cc([N+](=O)[O-])ccc2Cl)C(c2ccccc2)c2cc(F)ccc2N1` (stereo not drawn), the IC50 was 1.99 µM (active) at Fatty acid synthase [4] and 1.36 µM (active) on Fatty acid synthase [5].
Take `COc1ccc(C(=O)CCN2CCc3cc(OC)c(OC)cc3C2)cc1`: the AC50 in [3] is 1.84 µM (active).
`O=C(Cn1cnc2ccccc2c1=O)Nc1ccc2c(c1)CCC2`: at Leucine aminopeptidase, the IC50 is 5.23 µM (active).
Take `COc1ccc(C2CC23N=C(c2ccccc2)OC3=O)cc1` (stereo not drawn): the IC50 was 0.712 µM (active) at Fatty acid synthase [4] and 0.724 µM (active) on Fatty acid synthase [5].
Regarding `O=C(Nc1nc(=O)n(C(=O)C2CC2)s1)c1ccccc1`, on Leucine aminopeptidase, the IC50 is 40.7 µM (active).
For `O=C(NCCc1cccs1)C1CC(c2ccc([N+](=O)[O-])cc2)=NO1` (stereo not drawn), the EC50 was 16.2 µM (active) with H4, 118 µM (active) in [1] and 50.8 µM (active) in assay [2].
The matching figures for `COC(=O)c1ccc(NS(=O)(=O)NC(=O)c2cn(C)c3ccccc23)cc1`: > 120 µM (not active), > 120 µM (not active) and > 120 µM (not active).
For `FC(F)(F)c1c[nH]c2c(-c3ccccc3)nnc-2c1` the same measures were 13.9 µM (active), 1.29 µM (active) and 19.3 µM (active).
For the compound `NNC(=O)c1cccc(COc2ccccc2Br)c1`, the AC50 in assay [3] was > 100 µM (inactive).
Regarding `Cc1nn(-c2cc(C)c3ccccc3n2)c2c1CCC2`, the EC50 with H4 is 80.3 µM (active); in [1], 4.27 µM (active); in assay [2], 18.8 µM (active).
`Nc1[nH]nc2nc(N3CCOCC3)nc(-c3ccccc3)c12`: the IC50 at Leucine aminopeptidase is 6.77 µM (active).
Consider `O=C(O)CC12CC3CC(C1)CC(n1ncc(NCc4ccc5c(c4)OCO5)c(Cl)c1=O)(C3)C2`, for which the IC50 on Leucine aminopeptidase is 40.6 µM (active).
In the case of `O=C(O)CN1C(=O)/C(=C\c2ccccc2OCc2ccc(F)cc2)SC1=S`, at Genome polyprotein, the IC50 is 43.2 µM (active).
Turning to `Cc1ccc2c(c1)C(=O)C(=O)N2CCCOc1ccccc1C`, the IC50 on Genome polyprotein is > 100 µM (active).
`CSc1ccc(Cl)c(C(=O)OCC(=O)NCc2ccco2)c1`: the IC50 at Leucine aminopeptidase was 49.9 µM (active).
On to `Cc1ccc(S(=O)(=O)c2cc3c(=O)n4ccccc4nc3n(CCc3ccccc3)c2=N)cc1`, for which the EC50 was 0.713 µM (active) in the assay with H4; 111 µM (inconclusive) in assay [6]; 3.75 µM (inconclusive) in [7]; 97.9 µM (active) in assay [1]; > 120 µM (not active) in assay [2].
Regarding `Cc1cccc(CSC2=NCCN2C(=O)c2ccco2)c1`, the AC50 in [3] was 11 µM (active).
`CCOc1ccc(CCNC(=O)COC(=O)c2cc([N+](=O)[O-])ccc2N2CCOCC2)cc1OCC`: the values for the IC50 at Fatty acid synthase [4] and at Fatty acid synthase [5] were 9.59 µM (active) and 10.1 µM (active), respectively.
Turning to `COc1ccc(C(=O)C[n+]2ccccc2C=NO)cc1`, the EC50 was 32 µM (active) with H4, 12.5 µM (active) in assay [1] and 12.1 µM (active) in assay [2].
`Cc1cc(Br)ccc1NC(=O)CN(C)C(=O)c1cc([N+](=O)[O-])ccc1N1CCOCC1`: the IC50 is 4.65 µM (active) on Fatty acid synthase [4] and 8.23 µM (active) at Fatty acid synthase [5].
For `CC(=O)N(C(C)=O)N1C(=O)C2C3c4ccccc4C(c4ccccc43)C2C1=O` (stereo not drawn), on Genome polyprotein, the IC50 was 53.8 µM (active).
Regarding `Cc1cc(-c2nnc3n2N=C(c2ccc(F)cc2)CS3)[nH]n1`, the EC50 (with H4; in [1]; in assay [2]) was > 120 µM (not active) throughout.
In the case of `Cc1[nH]c2ccccc2c1C(=O)COc1ccccc1`, the EC50 with H4 is 13.2 µM (active); in assay [1], 18.7 µM (active); in assay [2], 16.4 µM (active).
For `N=C(NOC(=O)c1ccco1)c1ccc(Cl)cc1`, in assay [3], the AC50 was 13.1 µM (active).
For the compound `CN1C[C@H](C(=O)NC2(C)OC3(O)[C@@H]4CCCN4C(=O)[C@H](Cc4ccccc4)N3C2=O)CC2c3cccc4[nH]cc(c34)C[C@H]21` (stereo partly drawn), the IC50 at Fatty acid synthase [4] is 11.8 µM (active); on Fatty acid synthase [5], 10.3 µM (active).
Consider `Nc1c(Br)cc(Br)c2c1C(=O)c1c(cccc1S(=O)(=O)O)C2=O`, for which the IC50 at Genome polyprotein was 96.1 µM (active).
Turning to `Cc1ccc(NC2CCCN(C(=O)Cc3nonc3C)C2)cc1C` (stereo not drawn), the AC50 in assay [3] was 2.54 µM (active).
`COc1ccc(C(=O)NCCNc2ncc(C(F)(F)F)cc2Cl)cc1[N+](=O)[O-]`: the IC50 on Fatty acid synthase [4] is 12 µM (active); on Fatty acid synthase [5], 12.7 µM (active).
The matching figures for `Cc1nn(CCOc2ccc(Br)cc2)c(C)c1[N+](=O)[O-]`: 24.6 µM (inactive) and 15.9 µM (active).
For `CO[C@H]1CN(C)C(=O)c2cc(NC(=O)c3cc(C)on3)ccc2OC[C@H](C)N(C(=O)C2CC2)C[C@H]1C`, in [8], the AC50 is 4.96 µM (active).
As for `CCC(=O)N1[C@H](CO)[C@H](c2ccc(C3=CCCCC3)cc2)[C@H]1CNCC1CCC1`, in assay [8], the AC50 is 3.46 µM (active).
The same measure, in the same setting: for `CCCC(=O)N1CC2(C1)CN(Cc1ccc(Cl)cc1)[C@@H](CO)c1[nH]c3cc(OC)ccc3c12` the value was 5.26 µM (active); for `CO[C@H]1CN(C)C(=O)c2ccc(NC(=O)Nc3ccc(C(F)(F)F)cc3)cc2OC[C@@H](C)NC[C@@H]1C`, 9.45 µM (active).

Usually EC50 stands for the concentration at which the effect is half-maximal. Usually AC50 stands for the midpoint of the concentration-response curve, whichever way the signal moves. What is called IC50 is the midpoint of a concentration-inhibition curve.
